Tests used:
Assay type in all cases: in vivo, human
[1] = test system: healthy adults, healthy elderly subjects; test: Safety/tolerability of a single dose given as 9 hour continuous IV infusion in healthy adults and healthy elderly subjects
Experimental: (§1) This study investigates (i) the safety and tolerability of Compound A (methyl (2R,3S)-3-((methylsulfonyl)amino)-2-(((cis-4-phenylcyclohexyl)oxy)methyl)piperidine-1-carboxylate) when a single dose given as a 9 hour continuous IV infusion is administered to healthy adults, healthy elderly subjects and patients with narcolepsy type 1 (NT1); (ii) the pharmacokinetics of Compound A when a single dose given as a 9 hour continuous IV infusion is administered to healthy adults, healthy elderly subjects and patients with narcolepsy type 1; and (iii) the pharmacodynamics (PD) effects of Compound A, primarily by evaluation of the sleep latency on MWT when a single dose given as a 9 hour continuous IV infusion is administered to patients with narcolepsy type 1.
Safety and tolerability: adverse events, vital signs, 12-lead ECG and clinical laboratory tests (hematological tests, blood biochemical tests and urinalysis)
To investigate the safety of Compound A, the treatment-emergent adverse events (TEAEs) for healthy subjects and subjects with narcolepsy type 1 (NT1 patients) treated with Compound A were evaluated. A summary of the TEAEs for healthy subjects from cohorts 1 and 2 is shown in FIG. 3, for healthy subjects from cohorts S1, S2, 3, and 4 is shown in FIG. 4, and for NT1 patients is shown in FIG. 5.

[2] = Single dose PK in healthy elderly subjects (Cohort 3), plasma
Experimental: as §1
Pharmacokinetics: Concentrations of Compound A in plasma, and CSF, and pharmacokinetics parameters.

[3] = test system: patients with NT1; test: Number of cataplexy episodes (self-recorded sleep diary), multiple dose (Cohorts B1, B2); details: for Number of Cataplexy Episodes, Median / Number of Cataplexy Episodes, Mean: Treatment Period (Day 1-7 [until 24 hours after start of infusion])
Experimental: (§2) The purpose of the study was to evaluate the safety, tolerability, pharmacokinetics and pharmacodynamics of Compound A after multiple IV administration in patients with NT1. NT1 patients were evaluated in Cohort B1 and B2 (Table 19). Compound A or placebo were administered via IV infusion over 9 hours once daily for 7 days. A total of 13 patients with NT1 were treated with Compound A or placebo (4, 4, and 5 subjects in the placebo, Compound A 11 mg, and Compound A 44 mg groups, respectively). In this part, potential efficacy of Compound A was evaluated with MWT, ESS, KSS, night-time PSG (NPSG), cataplexy frequency assessment, and PGI-C as an exploratory PD assessment.
An overview of study schedule and PD testing in NT1 Patients is illustrated in FIG. 11. After screening, patients eligible for these parts had to discontinue any medication for narcolepsy including medications used for EDS or cataplexy. The medications had to be stopped for a minimum of 7 days or at least 5 half-lives of each medication, whichever was longer, before the first day of dosing (Day 1). As for a subject having possibility of getting injured due to severe cataplexy, the subject might have been confined to the site before Day −2 at a discretion of the investigator. In all cohorts of these parts, subjects underwent NPSG on Day −2 and baseline MWT sessions 4 times on Day −1 (at around 10:00, 12:00, 14:00, and 16:00). Study drug dosing via IV infusion was started at around 08:00. MWT was conducted on Day 1 at around 10:00, 12:00, 14:00, and 16:00. Subjects were allowed to take a nap on the days with no MWT assessment. At night of Day 6, the subjects underwent NPSG once again to evaluate the effect of multiple daytime dosing on night-time sleep structure. On Day 7, the subjects underwent MWT at the same hours as on Day −1. Cataplexy was to be evaluated by using the self-recorded sleep diary. The subjects were discharged from the study site on Day 8.

[4] = test system: patients with NT1; test: Safety and tolerability of multiple IV administration in patients with NT1
Experimental: as §2

COC(=O)N1CCC[C@H](NS(C)(=O)=O)[C@@H]1CO[C@H]1CC[C@@H](c2ccccc2)CC1 [Compound A, methyl (2R,3S)-3-((methylsulfonyl)amino)-2-(((cis-4-phenylcyclohexyl)oxy)methyl)piperidine-1-carboxylate]
BP and pulse rate increases vs Compound A concentration ([1]; human, in vivo): Trend for the observed BP and pulse rate increases in healthy subjects and Compound A concentration was observed | commonly observed AEs ([1]; human, in vivo, iv): BP increased and heart rate increased | adverse events (AEs), severity and seriousness ([1]; single dose, 9 hour IV infusion, Compound A groups (healthy subjects and NT1 patients)): all of the AEs were mild (except 1 moderate influenza) and no serious AEs were observed | reduction in clearance compared to younger healthy subjects [2]: 20% | Number of Cataplexy Episodes (Time-matched), Median ([3]; 11 mg, Day 1-7 (after infusion time up to 24 hours after start of infusion)): 1.0 | Number of Cataplexy Episodes (Time-matched), Mean ([3]; 11 mg, Day 1-7 (after infusion time up to 24 hours after start of infusion), time-matched baseline 5.8): 3.0 | Number of Cataplexy Episodes (Time-matched), Median ([3]; 11 mg, Day 1-7 (during infusion time)): 0.0 | Number of Cataplexy Episodes (Time-matched), Mean ([3]; 11 mg, Day 1-7 (during infusion time), time-matched baseline 5.8): 0 | Number of Cataplexy Episodes (Time-matched), Mean ([3]; 11 mg, Day 1-7 (during infusion time), time-matched baseline 5.8, listed as Cmpd A): 0.0 | Number of Cataplexy Episodes, Median ([3]; 11 mg): 1.0 | Number of Cataplexy Episodes, Mean ([3]; 11 mg, baseline 11.5): 3.0 | Number of Cataplexy Episodes (Time-matched), Median ([3]; 44 mg, Day 1-7 (after infusion time up to 24 hours after start of infusion)): 1.0 | Number of Cataplexy Episodes (Time-matched), Mean ([3]; 44 mg, Day 1-7 (after infusion time up to 24 hours after start of infusion), time-matched baseline 0.4): 1.4 | Number of Cataplexy Episodes (Time-matched), Median ([3]; 44 mg, Day 1-7 (during infusion time)): 0.0 | Number of Cataplexy Episodes (Time-matched), Mean ([3]; 44 mg, Day 1-7 (during infusion time), time-matched baseline 3.2): 0 | Number of Cataplexy Episodes (Time-matched), Mean ([3]; 44 mg, Day 1-7 (during infusion time), time-matched baseline 3.2, listed as Cmpd A): 0.0 | Number of Cataplexy Episodes, Median ([3]; 44 mg): 1.0 | Number of Cataplexy Episodes, Mean ([3]; 44 mg, baseline 3.6): 1.4 | BP and PR increases vs plasma exposure ([4]; NT1 patient populations): A trend for the observed BP and PR increases with increasing Compound A plasma exposure was observed | safety and tolerability ([4]; multiple IV administrations of up to 44 mg, 9 h infusion once daily for 7 days, NT1): safe and well tolerated | SAE and TEAE leading to study drug discontinuation ([4]; multiple IV administrations of up to 44 mg, NT1): There was no SAE, and no TEAE leading to study drug discontinuation

Reference: patent US20220339143A1, “TAK-925 FOR USE IN TREATING NARCOLEPSY” (Takeda Pharmaceutical Company Limited, priority 2019, published 2022)
